Test results published in patent US20060205822A1, “1-Aminocyclohexane derivatives for the treatment of multiple sclerosis, emotional lability and pseudobulbar affect” (Forest Laboratories, Inc., priority 2004, published 2006).

Assays:
NMDA receptor = details: noncompetitive antagonist; cited from earlier work
[1] = test system: thermal hyperalgesia and mechanical allodynia; details: relatively high doses; without obvious effects on motor reflexes; cited from earlier work
[2] = test system: acquired pendular nystagmus; details: physical symptom of multiple sclerosis; cited from earlier work
adult rats = details: cited from earlier work
[3] = test system: spastic hind limbs of EAE mice; experiment: Spasticity (resistance to hindlimb flexion against a strain gauge) in the EAE model in mice; type: in vivo, ABH mice; design: Resistance to flexion, Diff of Means: unit not given here
Excerpt: Induction of EAE. Induction of EAE in animal models is well known in the art. (Raine, Chapter 16, Handbook of Clinical Neurology, vol. 3(47): Demyelinating Diseases, Koetsier, ed., (Elsevier Science Publishers 1985). In the present protocol, 6-8 week ABH mice are immunized with mouse spinal cord homogenate in Freund's complete adjuvant on day 0 & 7. (Baker et al. 1990. J. Neuroimmunol 28:261 O'Neill et al 1992. J. Neuroimmunol. 38:53). Animals will develop relapsing remitting episodes of paralysis at approximately 3-4 week intervals. These will be monitored daily from day 11 onwards to ensure severity levels of paralysis and maintained with humane limits according to the Home Office, Animals (Scientific Procedures) Act […]. Spasticity (stiff hind limbs) after 2-3 relapse episodes (approximately 80-120 days post-induction) will be allowed to develop. Animals with visually spastic limbs will be selected for assessment of the TEST compound.
Resistance to flexion against a strain gauge will be the primary assessment (Baker et al. 2000. Nature), secondary outcome measures will be the presence or absence of spastic tails.
Spasticity. The “stiffness” of spastic limbs is measured using a purpose built strain gauge, and assessed by the resistance force against hindlimb flexion. The limb is extended manually twice prior to measurement of each limb. Limbs showing severe crossing or flexion will not be analyzed. The signal is amplified and digitized using DAS16 card (Amplicon, Brighton UK.) and acquired using Dacquire V10 software and analyzed using Spike 2 software (Baker et al 2000). Left and right hindlimbs are analyzed alternately and typically 5-8 readings per limb were measured at each time point. The mean values will be calculated and converted to forces in Newtons. Data will be analyzed using one-way repeated measures analysis of variance (ANOVA) incorporating Student-Newman-Keuls posthoc test. Differences to baseline will also be compared using Paired t tests.
Administration of compound. The TEST compounds are dissolved in vehicle (to be supplied by the SPONSOR-preferably this will be a saline solution) using doses (to be supplied by the SPONSOR). These will be delivered by the intravenous, intraperitoneal or oral route (to be supplied by the sponsor). Resistance to flexion will be assessed at 10 minutes 30 minutes and 60 minutes following intravenous, intraperitoneal injection, 30, 60 and 90 minutes after oral administration. (Escalating doses (up to three) may be used in the same cohort of animals following wash-out to allow for direct comparison of the dose response).

CC12CC3CC(C)(C1)CC(N)(C3)C2 [Memantine, 1-amino-3,5-dimethyl adamantane]
Affinity for the NMDA receptor (NMDA receptor): moderate affinity | Thermal hyperalgesia and mechanical allodynia [1]: selectively block thermal hyperalgesia and mechanical allodynia | Treatment of acquired pendular nystagmus [2]: effective | Formation of hippocampal long-term potentiation (adult rats): enhance the formation of hippocampal long-term potentiation | Spatial memory abilities (adult rats): improve spatial memory abilities

CC1(C)CC(C)(C)CC(C)(N)C1 [Neramexane, 1-amino-1,3,3,5,5-pentamethylcyclohexane]
Affinity for the NMDA receptor (NMDA receptor): moderate affinity | Thermal hyperalgesia and mechanical allodynia [1]: selectively block thermal hyperalgesia and mechanical allodynia | Resistance to flexion, Diff of Means ([3]; 3.1 mg/kg, 0 min vs. 10 min, P<0.001): 0.171 | Resistance to flexion, Diff of Means ([3]; 3.1 mg/kg, 0 min vs. 30 min, P<0.001): 0.142 | Resistance to flexion, Diff of Means ([3]; 3.1 mg/kg, 0 min vs. 60 min, P<0.001): 0.218 | Resistance to flexion, Mean ([3]; 3.1 mg/kg, 10 min post-injection, baseline 0 min 0.593, N=13): 0.422 N | Resistance to flexion, Diff of Means ([3]; 3.1 mg/kg, 10 min vs. 60 min, P 0.228, Do Not Test): 0.0474 | Resistance to flexion, Mean ([3]; 3.1 mg/kg, 30 min post-injection, baseline 0 min 0.593, N=13): 0.451 N | Resistance to flexion, Diff of Means ([3]; 3.1 mg/kg, 30 min vs. 10 min, P 0.453, Do Not Test): 0.0293 | Resistance to flexion, Diff of Means ([3]; 3.1 mg/kg, 30 min vs. 60 min, P 0.130, not significant): 0.0767 | Resistance to flexion, Mean ([3]; 3.1 mg/kg, 60 min post-injection, baseline 0 min 0.593, N=13): 0.374 N | Resistance to flexion, Diff of Means ([3]; 6.2 mg/kg, 0 min vs. 10 min, P 0.999, not significant): 0.0000691 | Resistance to flexion, Diff of Means ([3]; 6.2 mg/kg, 0 min vs. 30 min, P 0.013): 0.117 | Resistance to flexion, Diff of Means ([3]; 6.2 mg/kg, 0 min vs. 60 min, P<0.001): 0.172 | Resistance to flexion, Mean ([3]; 6.2 mg/kg, 10 min post-injection, baseline 0 min 0.567, N=11): 0.567 N | Resistance to flexion, Diff of Means ([3]; 6.2 mg/kg, 10 min vs. 30 min, P 0.005): 0.117 | Resistance to flexion, Diff of Means ([3]; 6.2 mg/kg, 10 min vs. 60 min, P<0.001): 0.172 | Resistance to flexion, Mean ([3]; 6.2 mg/kg, 30 min post-injection, baseline 0 min 0.567, N=11): 0.450 N | Resistance to flexion, Diff of Means ([3]; 6.2 mg/kg, 30 min vs. 60 min, P 0.162, not significant): 0.0549 | Resistance to flexion, Mean ([3]; 6.2 mg/kg, 60 min post-injection, baseline 0 min 0.567, N=11): 0.395 N | Resistance to flexion, Diff of Means ([3]; 12.3 mg/kg, 0 min vs. 10 min, P<0.001): 0.114 | Resistance to flexion, Diff of Means ([3]; 12.3 mg/kg, 0 min vs. 30 min, P<0.001): 0.103 | Resistance to flexion, Diff of Means ([3]; 12.3 mg/kg, 0 min vs. 60 min, P<0.001): 0.189 | Resistance to flexion, Mean ([3]; 12.3 mg/kg, 10 min post-injection, baseline 0 min 0.453, N=14): 0.339 N | Resistance to flexion, Diff of Means ([3]; 12.3 mg/kg, 10 min vs. 60 min, P 0.007): 0.0757 | Resistance to flexion, Mean ([3]; 12.3 mg/kg, 30 min post-injection, baseline 0 min 0.453, N=14): 0.350 N | Resistance to flexion, Diff of Means ([3]; 12.3 mg/kg, 30 min vs. 10 min, P 0.693, not significant): 0.0106 | Resistance to flexion, Diff of Means ([3]; 12.3 mg/kg, 30 min vs. 60 min, P 0.007): 0.0863 | Resistance to flexion, Mean ([3]; 12.3 mg/kg, 60 min post-injection, baseline 0 min 0.453, N=14): 0.263 N | Level of hind limb spasticity ([3]; all 3 doses (3.1, 6.2, 12.3 mg/kg), affected EAE mice): reduced the level of hind limb spasticity
